Data set [1] is described as follows: Hemolytic activity, minimal hemolytic concentration (MHC).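 On MCC: MCC here is the minimal hemolytic concentration (MHC).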 Format: cell-based, sheep. The protocol: (§1) Hemolytic activity of the squalamine mimics according to the present invention were also studied by incubating sheep red blood cells for 24 hours at 37° C. in saline (final concentration of 0.5%) with or without respective concentrations of the squalamine mimics. The minimal hemolytic concentration (MHC) was determined as the lowest concentration of a mimic that raised visible hemolysis.

The next data set deals with sheep red blood cells. The data set is described as above. Format: cell-based. The protocol:
as §1

The subject of another data set is P. aeruginosa (10145). In words: MIC, micro-broth dilution. Format: cell-based. To be noted: Pseudomonas aeruginosa, 35° C., 24 hours, read-out: ANTIMICROBIAL ACTIVITY (MIC). The protocol:
(§2) The antimicrobial activity of the compounds according to the present invention were compared with the results obtained for squalamine as reported in Proc. Nat. Acad. Sci. USA 90:1354 (1993), supra, the disclosure of which is incorporated in toto herein. The data reported in the following table is the minimum inhibitory concentration (MIC) required for complete inhibition of microbial growth. The MIC was determined utilizing known micro-broth dilution methods in which inocula of 10^6 /ml of the test organism were incubated in 0.5× trypticase soy broth at 35° C. for 24 hours. MIC's were also tested under various pH conditions, with calcium chloride or magnesium chloride, or with immobilized horse serum.
(§3) The numbers in parentheses contained in the table correspond to accession numbers with the American Type Culture Collection (reference strains were either obtained from the American Type Culture Collection or from the Microbiology Laboratory at Memorial Sloan-Kettering Cancer Center; Bacterial strains were maintained on Columbia 5% sheep blood agar plates, and fungi were maintained on Sabouraud Dextrose agar plates).
(In broth dilution the organism is exposed to a series of concentrations in liquid medium.)

A further data set concerns C. neoformans (M68979). The experiment in a line: MIC, micro-broth dilution. To be noted: Cryptococcus neoformans, 24 h, read-out: ANTIMICROBIAL ACTIVITY (MIC). The data set is classed as cell-based. The protocol: as §2, §3
The subject of a further data set is S. pneumoniae (6305). The experiment in a line: MIC, micro-broth dilution. The following applies: Streptococcus pneumoniae, 35° C., 24 hours, read-out: ANTIMICROBIAL ACTIVITY (MIC). Format: cell-based. The protocol:
as §2, §3

The test system of another data set is S. agalactiae (13813). In words: MIC, micro-broth dilution. The data set is classed as cell-based. To be noted: Streptococcus agalactiae, 35° C., 24 hours, read-out: ANTIMICROBIAL ACTIVITY (MIC). On the procedure: as §2, §3
The subject of another data set is E. faecalis (29212). In words: MIC, micro-broth dilution. The data set is classed as cell-based. To be noted: Enterococcus faecalis, 35° C., 24 hours, read-out: ANTIMICROBIAL ACTIVITY (MIC). On the procedure:
as §2, §3

Another data set has as its system S. aureus (29213). In words: MIC, micro-broth dilution. The data set is classed as cell-based. The following applies: Staphylococcus aureus, read-out: ANTIMICROBIAL ACTIVITY (MIC). The protocol:
as §2, §3

In the next data set the test system is P. aeruginosa (2853). In words: MIC, micro-broth dilution. To be noted: Pseudomonas aeruginosa, 24 h, read-out: ANTIMICROBIAL ACTIVITY (MIC). The data set is classed as cell-based. On the procedure: as §2, §3
A further data set relates to C. neoformans (90012). In words: MIC, micro-broth dilution. The following applies: Cryptococcus neoformans, 24 h, read-out: ANTIMICROBIAL ACTIVITY (MIC). The data set is classed as cell-based. On the procedure:
as §2, §3

In a further data set the test system is S. epidermidis (12228). In words: MIC, micro-broth dilution. The data set is classed as cell-based. To be noted: Staphylococcus epidermidis, 35° C., 24 hours, read-out: ANTIMICROBIAL ACTIVITY (MIC). On the procedure: as §2, §3
Another data set relates to A. fumigatus (H29709). The experiment in a line: MIC, micro-broth dilution. The data set is classed as cell-based. The following applies: Aspergillus fumigatus, 35° C., 24 hours, read-out: ANTIMICROBIAL ACTIVITY (MIC). On the procedure: as §2, §3
The next data set has as its system K. pneumoniae (13883). The experiment in a line: MIC, micro-broth dilution. The data set is classed as cell-based. To be noted: Klebsiella pneumoniae, 24 h, read-out: ANTIMICROBIAL ACTIVITY (MIC). On the procedure: as §2, §3
For another data set, the system named is S. marcescens (13880). The experiment in a line: MIC, micro-broth dilution. To be noted: for MIC: Serratia marcescens, 24 h, read-out: ANTIMICROBIAL ACTIVITY (MIC). Format: cell-based. On the procedure:
as §2, §3

The subject of the next data set is E. cloacae (13047). In words: MIC, micro-broth dilution. The data set is classed as cell-based. To be noted: Enterobacter cloacae, 35° C., 24 hours, read-out: ANTIMICROBIAL ACTIVITY (MIC). The protocol: as §2, §3
For the next data set, the system named is P. vulgaris (13315). The experiment in a line: MIC, micro-broth dilution. Format: cell-based. The following applies: Proteus vulgaris, 35° C., 24 hours, read-out: ANTIMICROBIAL ACTIVITY (MIC). On the procedure: as §2, §3
A further data set relates to E. coli (25922). The experiment in a line: MIC, micro-broth dilution. Format: cell-based. To be noted: Escherichia coli, 35° C., 24 hours, read-out: ANTIMICROBIAL ACTIVITY (MIC). The protocol: as §2, §3
In the next data set the test system is A. fumigatus (H1120). The experiment in a line: MIC, micro-broth dilution. To be noted: Aspergillus fumigatus, 35° C., 24 hours, read-out: ANTIMICROBIAL ACTIVITY (MIC). Format: cell-based. The protocol:
as §2, §3

The subject of a further data set is E. faecium (T6480-9). In words: MIC, micro-broth dilution. The data set is classed as cell-based. To be noted: Enterococcus faecium, 35° C., 24 hours, read-out: ANTIMICROBIAL ACTIVITY (MIC). On the procedure:
as §2, §3

The test system of a further data set is S. pyrogenes (19615). The experiment in a line: MIC, micro-broth dilution. Format: cell-based. To be noted: 24 h, read-out: ANTIMICROBIAL ACTIVITY (MIC). On the procedure:
as §2, §3

The next data set has as its system C. albicans (90028). The experiment in a line: MIC, micro-broth dilution. To be noted: Candida albicans, 35° C., 24 hours, read-out: ANTIMICROBIAL ACTIVITY (MIC). The data set is classed as cell-based. The protocol: as §2, §3
Data set [2] concerns various groups of microorganisms. In words: Antimicrobial activity (MIC), all microorganisms tested. The data set is classed as cell-based. The protocol: as §2, §3
The test system of another data set is S. aureus (25923). The experiment in a line: MIC, micro-broth dilution. Format: cell-based. To be noted: Staphylococcus aureus, 35° C., 24 hours, read-out: ANTIMICROBIAL ACTIVITY (MIC). The protocol: as §2, §3
A further data set deals with S. aureus (H20809). In words: MIC, micro-broth dilution. The data set is classed as cell-based. To be noted: Staphylococcus aureus, 24 h, read-out: ANTIMICROBIAL ACTIVITY (MIC). The protocol:
as §2, §3

Each structure is given as a SMILES string. Values after ≈ are worked out from the molar mass of the structure shown. “Also recorded” adds a separate entry of the source. Where two headings read alike, the source gives them in different places.

With `C[C@H](CCCNCCCNCCCCNCCCN)[C@H]1CC[C@H]2[C@@H]3CC[C@@H]4C[C@H](O)CC[C@]4(C)[C@H]3C[C@H](O)[C@]12C` [SM-7H], in data set [1] (sheep, red blood cells), the MCC at 24 h is 50 µg/mL. Further, in the data set with sheep red blood cells, the “hemolytic activity (in words)” value is listed as “unwanted hemolytic activity”. Further, the MIC was determined as 3.13 µg/mL (≈ 5.56 µM) with P. aeruginosa (10145); 0.39 µg/mL (≈ 0.693 µM) in the data set with C. neoformans (M68979); 1.56 µg/mL (≈ 2.77 µM) in the data set on S. pneumoniae (6305); 0.78 µg/mL (≈ 1.39 µM) in the data set on S. agalactiae (13813); 6.25 µg/mL (≈ 11.1 µM) in the data set with E. faecalis (29212); 0.78 µg/mL (≈ 1.39 µM) in the data set with S. aureus (29213) (S. aureus (29213), 35° C., 24 hours). The MIC with P. aeruginosa (2853) worked out at 3.13 µg/mL (≈ 5.56 µM); with C. neoformans (90012), 0.39 µg/mL (≈ 0.693 µM); in the data set with S. epidermidis (12228), 0.39 µg/mL (≈ 0.693 µM); in the data set on A. fumigatus (H29709), 12.5 µg/mL (≈ 22.2 µM); with K. pneumoniae (13883), 12.5 µg/mL (≈ 22.2 µM); in the data set on S. marcescens (13880) it was 12.5 µg/mL (≈ 22.2 µM). Moreover, the MIC was 12.5 µg/mL (≈ 22.2 µM) with E. cloacae (13047); 6.25 µg/mL (≈ 11.1 µM) with P. vulgaris (13315); 6.25 µg/mL (≈ 11.1 µM) in the data set with E. coli (25922); 12.5 µg/mL (≈ 22.2 µM) in the data set on A. fumigatus (H1120); 6.25 µg/mL (≈ 11.1 µM) in the data set on E. faecium (T6480-9); 0.39 µg/mL (≈ 0.693 µM) in the data set on S. pyrogenes (19615). In the data set with C. albicans (90028), the MIC is 6.25 µg/mL (≈ 11.1 µM). Besides, the “activity against S. marcescens” value in the data set on S. marcescens (13880) (in words) is recorded as “found even against S. marcescens; also recorded: effective against S. marcescens”.
Turning to `C[C@H](CCC(=O)NCCCNCCCCNCCCN)[C@H]1CC[C@H]2[C@@H]3[C@H](O)C[C@@H]4C[C@H](O)CC[C@]4(C)[C@H]3C[C@H](O)[C@]12C` [SM-13, cholic acid-spermine conjugate], the “antimicrobial activity (in words)” value in [2] is “lesser activity; also recorded: more activity than SM-8, SM-14, and SM-22”. Besides, the minimal hemolytic concentration (MHC) at 24 h in data set [1] (sheep red blood cells, 24 hours at 37° C. in saline) was > 100 µg/mL. In addition, the MIC was 25 µg/mL (≈ 42.2 µM) in the data set on P. aeruginosa (10145); 3.13 µg/mL (≈ 5.28 µM) in the data set on C. neoformans (M68979); 25 µg/mL (≈ 42.2 µM) with S. pneumoniae (6305); 6.25 µg/mL (≈ 10.5 µM) with S. aureus (25923); 12.5 µg/mL (≈ 21.1 µM) with S. agalactiae (13813); 50 µg/mL (≈ 84.3 µM) in the data set with E. faecalis (29212). Besides, the MIC with S. aureus (29213) (24 h) is 12.5 µg/mL (≈ 21.1 µM); with P. aeruginosa (2853), 25 µg/mL (≈ 42.2 µM); with S. epidermidis (12228), 3.13 µg/mL (≈ 5.28 µM); in the data set on S. aureus (H20809), 6.25 µg/mL (≈ 10.5 µM); in the data set with K. pneumoniae (13883) it was > 100 µg/mL; with S. marcescens (13880) it was > 100 µg/mL. Further, the MIC in the data set on E. cloacae (13047) is > 100 µg/mL; in the data set on P. vulgaris (13315) it was > 100 µg/mL; with E. coli (25922) it was 25 µg/mL (≈ 42.2 µM); with A. fumigatus (H1120), 25 µg/mL (≈ 42.2 µM); in the data set on E. faecium (T6480-9) it was 50 µg/mL (≈ 84.3 µM); with S. pyrogenes (19615), 3.13 µg/mL (≈ 5.28 µM). Further, the MIC in the data set on C. albicans (90028) came out at 12.5 µg/mL (≈ 21.1 µM).
Take `C[C@H](CCC(=O)NCCCNCCCCNCCCN)[C@H]1CC[C@H]2[C@@H]3[C@H](OS(=O)(=O)O)C[C@@H]4C[C@H](OS(=O)(=O)O)CC[C@]4(C)[C@H]3C[C@H](OS(=O)(=O)O)[C@]12C` [SM-14]: the MIC in [2] (24 h, read-out: MICs against the various groups of microorganisms tested) is > 100 µg/mL.

The values above are taken from patent publication US5834453A, “Methods for the manufacture and use of antimicrobial sterol conjugates” (Lehigh University, priority 1997, dated 1998).
